Data as given in a melting point compilation (Tetko et al.).

| Compound | melting point |
| --- | --- |
| O=c1c(Nc2ccccc2)c(Nc2ccccc2)c1=O | 270 °C |
| COc1ccc(C=O)c(Cl)c1OC | 71 to 72 °C |
| Cn1ccc2ccc(C=O)cc21 | 81 °C |
| CC1(C(=O)O)CCC(C(Br)C(Br)c2ccccc2)C1(C)C (stereo not drawn) | 161 °C |
| COC1=C(OC)/C(=C/C=O)OC1=O | 60 to 62 °C |
| CN(C)c1nc(N(C)C)nc(N(C)C)n1 | 173 °C |
| NC(=O)c1ccc(F)c(F)c1 | 134 °C |
| COC(=O)CCCCCCC(=O)O | 17 to 19 °C |
| CC(=O)c1c(O)nc2cc3nc(O)c(C(C)=O)c(C)c3cc2c1C | 310 °C |
| O=S(=O)(c1ccc(Cl)cc1)c1cc(Cl)c(Cl)cc1Cl | 147 °C |
| O=C(c1ccncc1)c1ccc(Cl)cc1 | 108 °C |
| c1ccc2c(c1)[nH]c1cnccc12 | 199 to 201 °C |
| N#CCCSCCC#N | 24 to 25 °C |
| CCNc1cc(=O)oc2ccccc12 | 150 °C |
| O=C(O)CC[C@H](NC(=O)OCc1ccccc1)C(=O)O | 118 to 121 °C |
| CC(C)Cc1ccc(C(=O)C(C)Cl)cc1 (stereo not drawn) | 52 to 54 °C |
| O=C(O)/C=C/c1cccc2c(Br)cccc12 | 269 to 270 °C |
| C=Cc1ccc(C(N)=O)cc1 | 170 °C |
| c1cc(OCC2CO2)ccc1OCC1CO1 (stereo not drawn) | 111 °C |
| CCCCCC(=O)Cl | -87 °C |
| CCc1[nH]c2ccccc2c1C | 62 to 65 °C |
| S=c1ssc(S)c1-c1ccccc1 | 153 to 155 °C |
| CC(=O)C1=C(C)NC(=O)NC1c1ccccc1 (stereo not drawn) | 238 °C |

| Compound | melting point |
| --- | --- |
| CC(C)(C)OC(=O)NC1(C(=O)O)CCCC1 | 133 °C |
| Cc1cccc(NC(=O)c2ccccc2C(=O)O)c1 | 150 °C |
| CCCCCCCCCCS | -26 °C |
| O=[N+]([O-])c1ccc(N=Nc2ccc(O)c3ccccc23)cc1 | 275 °C |
| CC(=O)CCn1cc([N+](=O)[O-])nc1C | 98 to 100 °C |
| CCOc1ccc([N+](=O)[O-])cc1N | 96.5 °C |
| COC(=O)c1c(-c2c(Cl)cccc2Cl)noc1C | 115 °C |
| O=C1c2ccccc2-c2c(O)cccc21 | 250 °C |
| CC(C)(C)[Si](C)(C)N1C(=O)C[C@@H]1C(=O)O | 137 to 141 °C |
| CC(C)(C)N(NC(=O)c1ccc(Cl)cc1)C(=O)c1ccccc1 | 200 °C |
| CC(=O)C=NO | 69 °C |
| CN(C)c1ccc(C=CC#N)cc1 | 165 to 168 °C |
| N#Cc1ccc(F)cc1C#N | 101 °C |
| O=C(O)C=Cc1cc(F)cc(F)c1 | 205 °C |
| O=C1OCCO1 | 39.5 °C |
| CCC1C2CC3C4N(C)c5ccccc5C45CC(C2C5O)N3C1O (stereo not drawn) | 159 °C |
| CC1=CC=CC2Cc3ccccc3C(=O)N12 (stereo not drawn) | 98 °C |
| CC(=O)c1cc(Cl)c(C)cc1O | 70 to 73 °C |
| FC(F)(F)c1nn(CN2CCOCC2)c(=S)n1/N=C/c1ccc2c(c1)OCO2 | 183 °C |
| O=[N+]([O-])c1cccnc1Oc1ccc(F)cc1F | 63 to 65 °C |
| O=c1c2ccccc2ccc2ccccc12 | 88.5 °C |
| CC(C)(O)C#Cc1ccc(C=NO)cc1 | 109 to 112 °C |
| CC1=CCC(=O)Nc2c1cnn2-c1ccc(Cl)cc1 | 177 to 178 °C |

| Compound | melting point |
| --- | --- |
| Cc1c(Cl)cc(F)cc1S(N)(=O)=O | 118 to 120 °C |
| COC(=O)C(Cc1ccc(O)cc1)NC(=O)OC(C)(C)C (stereo not drawn) | 107 °C |
| c1ccc(C2CC2)cc1 | -31 °C |
| N#Cc1ccc(C#N)c(OC(F)(F)F)c1 | 79 to 81 °C |
| CC(C)(C)OC(=O)N1C2CCC1CC(=O)C2 | 58 to 59 °C |
| CCOC(=O)COc1cc(Cl)c(Cl)cc1Cl | 64 °C |
| O=C1OCCC1N(C(=O)C1CC1)c1cccc(Cl)c1 (stereo not drawn) | 95 °C |
| Cn1c(=O)cc(NN)c2ccccc21 | 216 °C |
| O=C1Cc2cccc(Cl)c21 | 71 °C |
| CC(Cc1ccccc1)C(=O)O (stereo not drawn) | 37 to 37.5 °C |
| N#Cc1ccc(-n2cccc2)cc1 | 103 to 105 °C |
| ClC1CC2CCC1C2 (stereo not drawn) | -5 °C |
| CSc1nc2ccc([N+](=O)[O-])cc2s1 | 134 to 136 °C |
| CCOC(=O)CN=C(c1ccccc1)c1ccccc1 | 53 °C |
| c1ccc(-c2nc(-c3ccccn3)nc(-c3ccccn3)n2)nc1 | 250 °C |
| C/C=C/c1ccc(O)c(OC)c1 | 33.5 °C |
| CC(C(=O)O)c1ccc(C2CCCC(=NO)C2)cc1 (stereo not drawn) | 178 °C |
| CCCCCc1ccc(-c2nnc(S)[nH]2)cc1 | 190 to 193 °C |
| CC12CC(O)C3C(CCC4CC(O)CCC43C)C1CCC2=O (stereo not drawn) | 235 °C |
| Clc1cc(Cl)c2c(c1Cl)Oc1ccccc1O2 | 128 °C |
| FC(F)(F)c1ccccc1CCc1ccccc1C(F)(F)F | 75 °C |
| CCc1ccc(C#Cc2ccc(C)cc2)cc1 | 73 °C |
| Cc1ccc(S(=O)(=O)Cl)cc1[N+](=O)[O-] | 38 to 40 °C |

| Compound | melting point |
| --- | --- |
| O=C1C=C(NCCCCc2ccccc2)C(=O)c2ccccc21 | 137 °C |
| CSc1nc(O)ns1 | 158 to 160 °C |
| Nc1n[nH]c(N)c1Cc1ccc2c(c1)OCO2 | 169 to 171 °C |
| N#C/C(=N/Nc1ccc(F)cc1)c1nc(-c2ccc(Cl)cc2)cs1 | 225 °C |
| CC(=O)OC(OC(C)=O)c1ccccc1 | 46 °C |
| COc1cccc(C=Nc2n[nH]c(N=Cc3cccc(OC)c3O)c2Cc2ccc(Cl)cc2)c1O | 261 to 263 °C |
| COC(=O)C1(C(=O)OC)Cc2cc(C)ccc2C(=O)O1 | 135 to 136 °C |
| Cc1nccn1-c1cccc(C(=O)O)c1 | 182 to 184 °C |
| COc1ccc(CN2CCc3ccccc3C2)cc1O | 129 °C |
| COc1cccc2c(O)c3ccccc3nc12 | 284 to 287 °C |
| OC[C@H]1O[C@@H](n2cnc3c(Cl)ncnc32)[C@H](O)[C@@H]1O | 161 to 163 °C |
| CN(C(=S)Cl)c1ccc(Br)cc1 | 101 to 104 °C |
| Cc1ccc2cc(C(=O)O)ccc2n1 | 250 °C |
| Nc1cc(C(=O)O)cc([N+](=O)[O-])c1 | 216 °C |
| O=Cc1cccc(CBr)c1 | 49 to 51 °C |
| CC(C(=O)O)N1C(=O)c2ccccc2C1=O (stereo not drawn) | 163 °C |
| C[C@]12CC[C@H]3[C@@H](CCC4CC(=O)CC[C@@]43C)[C@@H]1CC[C@H]2OC=O (stereo partly drawn) | 124 °C |
| O=C(O)COc1cccc(OCC(=O)O)c1 | 194 °C |
| N#CC1CC2C=CC1C2 (stereo not drawn) | 13 °C |
| CCCCCC(C)Br (stereo not drawn) | 47 °C |
| Oc1cc(F)c(F)c(F)c1 | 54 °C |
| c1ccc(CCCc2ccccc2)cc1 | 6 °C |
| CCCCCC(N)=O | 101 °C |

| Compound | melting point |
| --- | --- |
| O=C1c2ccccc2CC2CCCCN12 (stereo not drawn) | 97 °C |
| OCC1OC(n2cnc3c(NCc4ccccc4)ncnc32)C(O)C1O (stereo not drawn) | 184 to 186 °C |
| Cc1ccc(S(=O)(=O)N(Cl)Cl)cc1 | 83 °C |
| NC(=O)Cc1ccc(F)cc1Cl | 171 to 173 °C |
| Clc1ccc(CSC(Cn2cncn2)=Nc2ccc(Cl)cc2Cl)cc1 | 90 °C |
| O=S(=O)(Cl)c1ccc(-c2ccccc2)s1 | 85 to 87 °C |
| NS(=O)(=O)c1cc2c(cc1Cl)NC(C(Cl)Cl)NS2(=O)=O (stereo not drawn) | 270 °C |
| Brc1cccc(Br)c1Oc1ccccc1 | < 20 °C |
| O=C1c2ccccc2CC1Br (stereo not drawn) | 39 to 44 °C |
| Cn1c(C(=O)O)cc2sccc21 | 154 to 156 °C |
| CC(C)(C)N(NC(=O)c1ccccc1)C(=O)c1ccccc1C(F)(F)F | 172 °C |
| O=Cc1cccn1-c1ccc(C(F)(F)F)cc1 | 97 to 98 °C |
| FC(F)(F)N=C1SC(=Nc2ccccc2)N(c2ccccc2)C1=NC(F)(F)F | 118 °C |
| COC(=O)C1C(=O)C(C(=O)OC)C2c3ccccc3C1C(C(=O)OC)C(O)C2C(=O)OC (stereo not drawn) | 92.2 °C |
| CC12CCC(C3(CCC(=O)O3)C1=O)C2(C)C (stereo not drawn) | 207 °C |
| CCCCCC1=CCCC1 | -83 °C |
| CSc1ccc(N)cc1C(F)(F)F | 57 °C |
| C/C=C/C1Nn2c(nnc2-c2ccc(OC)cc2)S1 (stereo not drawn) | 80 to 82 °C |
| O=C=NC1CCC(N=C=O)CC1 (stereo not drawn) | 59 to 64 °C |
| Cc1nc(-c2cccc(CO)c2)no1 | 56 to 58 °C |
| COCCOCCOCCOC | -45 °C |
| O=c1[nH]c(=O)n(C2CCC(CO)O2)cc1Br (stereo not drawn) | 180 °C |
| CC1(C)OCC(CO)O1 (stereo not drawn) | -27 °C |

| Compound | melting point |
| --- | --- |
| C=C1C(=O)C23C(OC(C)=O)CC4C(C)(C)CCC(OC(C)=O)C4(C)C2C(OC(C)=O)CC1C3OC(C)=O (stereo not drawn) | 277 °C |
| O=C(Cl)c1ccc2sccc2c1 | 86 to 87 °C |
| Clc1ccc(C(Cn2ccnc2)OCc2csc3c(Cl)cccc23)c(Cl)c1 (stereo not drawn) | 146 °C |
| C=CC(C)Cl (stereo not drawn) | -50 °C |
| CC(=O)n1c(C)cc2cc3cc(C)[nH]c3cc21 | 279 °C |
| O=C1CCCc2c(O)cccc21 | 207 to 210 °C |
| ClCc1nc(-c2ccccc2)no1 | 42 °C |
| COc1c(F)cc(CBr)cc1F | 41 °C |
| Brc1cccc(N2CCCC2)n1 | 86 to 88 °C |
| CC[C@H](C)[C@H](NC(=O)OC(C)(C)C)C(=O)O | 69 °C |
| CC(=O)c1cc(-c2c(Cl)cccc2Cl)no1 | 117 to 119 °C |
| NCc1ccc(N2CCOCC2)cc1 | 50 °C |
| C1CCN(SSN2CCCCC2)CC1 | 64.2 °C |
| C=C1CC2CC(OC(=O)c3ccccc3)CCC2(C)C2CCC3(C)C(OC(=O)c4ccccc4)CCC3C12 (stereo not drawn) | 192 °C |
| COC(=O)NC=Cc1ccc(C=CNC(=O)OC)cc1 | 360 °C |
| Cc1cc(C(=O)NN)nn1C(C)(C)C | 85 to 88 °C |
| COc1ccc2c3c([nH]c2c1)C1CC2C(CC(O)C(OC)C2C(=O)O)CN1CC3 (stereo not drawn) | 242 °C |
| NS(=O)(=O)c1cc2c(cc1Cl)NC(CSCC(F)(F)F)NS2(=O)=O (stereo not drawn) | 206 °C |
